Values quoted from earlier work in patent EP2502493B1, “Novel alpha-galactosidases” (Velico Medical, Inc., priority 2005, dated 2007).

Test system: α-galactosidase from the marine bacterium Pseudoalteromonas spp. (KMM 701)
Conditions: isolated enzyme preparation, purified to 9.8U/mg; monosaccharide substrate pNP-Gal; read-out: apparent Km for pNP-Gal

For `O=[N+]([O-])c1ccc(O[C@H]2O[C@H](CO)[C@H](O)[C@H](O)[C@H]2O)cc1` [pNP-Gal, p-nitrophenyl α-D-Gal], the Km is given as 290 µM.
